Tests used:
[1] = molecular target: Glycogen synthase kinase-3 beta (Homo sapiens, UniProt P49841); assay: Inhibition of human recombinant GSK-3beta using 19F peptide as substrate measured after 1.5 hrs by fluorescence method
[2] = molecular target: Beta-secretase 1 (Homo sapiens, UniProt P56817); assay: Inhibition of human recombinant BACE-1 using 19F peptide as substrate measured after 5 hrs by fluorescence method
[3] = molecular target: T1, Cholinesterase (Homo sapiens, UniProt P06276); assay: Inhibition of BuChE (unknown origin) assessed as decrease in thiocholine accumulation by spectrophotometry
T1 sequence (P06276 whole entry): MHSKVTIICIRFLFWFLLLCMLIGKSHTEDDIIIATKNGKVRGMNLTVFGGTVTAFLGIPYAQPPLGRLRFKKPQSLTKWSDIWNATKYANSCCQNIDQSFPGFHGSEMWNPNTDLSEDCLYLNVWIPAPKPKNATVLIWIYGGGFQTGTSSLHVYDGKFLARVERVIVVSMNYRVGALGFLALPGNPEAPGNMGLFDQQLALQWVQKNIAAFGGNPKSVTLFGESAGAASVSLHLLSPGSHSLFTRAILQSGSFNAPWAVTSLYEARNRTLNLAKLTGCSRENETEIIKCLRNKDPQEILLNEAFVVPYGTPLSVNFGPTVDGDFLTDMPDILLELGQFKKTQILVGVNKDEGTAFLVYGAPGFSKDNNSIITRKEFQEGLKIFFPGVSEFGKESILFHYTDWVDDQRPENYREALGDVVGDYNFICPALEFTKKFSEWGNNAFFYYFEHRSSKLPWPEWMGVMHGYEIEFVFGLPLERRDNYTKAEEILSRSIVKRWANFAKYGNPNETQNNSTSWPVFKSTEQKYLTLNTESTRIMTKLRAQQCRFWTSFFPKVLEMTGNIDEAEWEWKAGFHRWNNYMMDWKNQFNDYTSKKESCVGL

[4] = Inhibition of calcium channel in rat ileum intestine assessed as reduction in Ca-induced contraction; assay type: tissue-based
[5] = test system: Mus musculus; assay: In-vivo inhibition of NMDA receptor in mouse assessed as reduction in NMDA-induced convulsions administered intraperitoneally 40 mins before NMDA injection; assay type: functional, organism-based
[6] = molecular target: T1, Cholinesterase; assay: Inhibition of BChE (unknown origin)
[7] = test system: SK-N-SH; assay: Inhibition of apoptosis in human SK-N-SH cells assessed as […] in cleaved caspase-3 by Western blot analysis; assay type: functional, cell-based
[8] = molecular target: T1, Cholinesterase; assay: Inhibition of human BuChE
[9] = molecular target: Amyloid-beta precursor protein (Homo sapiens) (UniProt P05067); assay: Inhibition of self-induced amyloid beta (1 to 42) (unknown origin) aggregation at 20 uM
Chain of Amyloid-beta precursor protein (Homo sapiens) (P05067 whole entry): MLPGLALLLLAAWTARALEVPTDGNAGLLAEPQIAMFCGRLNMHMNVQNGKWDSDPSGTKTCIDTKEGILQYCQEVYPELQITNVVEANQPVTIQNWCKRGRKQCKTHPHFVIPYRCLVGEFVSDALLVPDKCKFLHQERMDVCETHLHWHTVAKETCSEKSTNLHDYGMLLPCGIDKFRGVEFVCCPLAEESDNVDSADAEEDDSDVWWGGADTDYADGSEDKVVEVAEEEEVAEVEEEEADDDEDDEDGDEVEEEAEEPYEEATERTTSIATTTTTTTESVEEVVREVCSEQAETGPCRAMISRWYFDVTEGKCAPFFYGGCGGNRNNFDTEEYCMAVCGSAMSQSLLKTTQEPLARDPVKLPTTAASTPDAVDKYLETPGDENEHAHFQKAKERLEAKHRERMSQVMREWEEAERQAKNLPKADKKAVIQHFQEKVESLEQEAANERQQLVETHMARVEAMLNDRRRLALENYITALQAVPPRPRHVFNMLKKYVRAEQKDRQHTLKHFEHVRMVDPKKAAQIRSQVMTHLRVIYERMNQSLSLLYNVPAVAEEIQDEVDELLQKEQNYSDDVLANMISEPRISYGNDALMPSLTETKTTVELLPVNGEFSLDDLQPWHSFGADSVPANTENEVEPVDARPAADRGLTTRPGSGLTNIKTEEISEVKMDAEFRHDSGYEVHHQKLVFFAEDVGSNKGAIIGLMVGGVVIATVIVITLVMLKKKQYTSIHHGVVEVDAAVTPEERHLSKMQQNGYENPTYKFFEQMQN

[10] = molecular target: Acetylcholinesterase (Homo sapiens, UniProt P22303); assay: Inhibition of human AChE
Chain of Acetylcholinesterase (P22303 whole entry): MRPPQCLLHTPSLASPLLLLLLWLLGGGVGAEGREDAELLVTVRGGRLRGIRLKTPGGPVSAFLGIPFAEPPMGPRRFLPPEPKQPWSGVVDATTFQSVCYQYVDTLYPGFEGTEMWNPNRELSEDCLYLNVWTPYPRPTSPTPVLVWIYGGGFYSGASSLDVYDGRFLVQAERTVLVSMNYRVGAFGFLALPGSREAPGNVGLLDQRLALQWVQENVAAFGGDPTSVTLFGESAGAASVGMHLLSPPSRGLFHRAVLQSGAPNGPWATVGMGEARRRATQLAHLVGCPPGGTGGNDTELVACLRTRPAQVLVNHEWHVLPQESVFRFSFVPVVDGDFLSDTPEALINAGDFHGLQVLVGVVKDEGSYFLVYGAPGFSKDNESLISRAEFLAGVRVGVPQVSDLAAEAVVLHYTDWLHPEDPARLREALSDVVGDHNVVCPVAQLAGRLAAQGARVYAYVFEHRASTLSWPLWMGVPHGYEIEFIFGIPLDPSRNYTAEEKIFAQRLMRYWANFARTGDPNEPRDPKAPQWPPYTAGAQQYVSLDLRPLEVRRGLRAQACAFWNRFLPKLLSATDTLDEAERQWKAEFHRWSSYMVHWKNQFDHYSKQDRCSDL

[11] = molecular target: Microtubule-associated protein tau (Homo sapiens) (UniProt P10636); assay: Inhibition of tau aggregation (unknown origin) at 20 uM
Chain of Microtubule-associated protein tau (Homo sapiens) (P10636 whole entry): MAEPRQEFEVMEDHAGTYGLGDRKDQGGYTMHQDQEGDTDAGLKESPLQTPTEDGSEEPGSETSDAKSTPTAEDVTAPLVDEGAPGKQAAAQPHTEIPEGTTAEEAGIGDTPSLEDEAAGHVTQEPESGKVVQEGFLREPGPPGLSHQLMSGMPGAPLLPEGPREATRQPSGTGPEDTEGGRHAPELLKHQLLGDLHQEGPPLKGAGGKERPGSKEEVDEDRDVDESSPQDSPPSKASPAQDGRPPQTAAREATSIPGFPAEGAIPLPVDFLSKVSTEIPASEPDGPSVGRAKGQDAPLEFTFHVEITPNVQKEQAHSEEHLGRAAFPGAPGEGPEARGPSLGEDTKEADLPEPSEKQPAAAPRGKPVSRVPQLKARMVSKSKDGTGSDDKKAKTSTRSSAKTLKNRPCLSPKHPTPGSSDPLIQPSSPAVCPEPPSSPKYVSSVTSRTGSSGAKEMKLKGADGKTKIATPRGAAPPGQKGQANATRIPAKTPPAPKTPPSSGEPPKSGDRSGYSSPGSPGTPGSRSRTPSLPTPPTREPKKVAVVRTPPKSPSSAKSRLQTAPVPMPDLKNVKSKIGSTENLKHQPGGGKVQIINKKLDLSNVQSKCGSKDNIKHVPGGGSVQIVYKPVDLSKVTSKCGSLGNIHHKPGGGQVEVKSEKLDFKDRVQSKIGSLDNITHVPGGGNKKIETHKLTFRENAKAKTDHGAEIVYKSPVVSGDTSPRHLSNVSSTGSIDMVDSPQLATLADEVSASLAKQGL

[12] = molecular target: Glutamate [NMDA] receptor; assay: Inhibition of NMDA receptor (unknown origin); assay type: protein-complex assay, Homo sapiens

Chain of Glycogen synthase kinase-3 beta (P49841 whole entry): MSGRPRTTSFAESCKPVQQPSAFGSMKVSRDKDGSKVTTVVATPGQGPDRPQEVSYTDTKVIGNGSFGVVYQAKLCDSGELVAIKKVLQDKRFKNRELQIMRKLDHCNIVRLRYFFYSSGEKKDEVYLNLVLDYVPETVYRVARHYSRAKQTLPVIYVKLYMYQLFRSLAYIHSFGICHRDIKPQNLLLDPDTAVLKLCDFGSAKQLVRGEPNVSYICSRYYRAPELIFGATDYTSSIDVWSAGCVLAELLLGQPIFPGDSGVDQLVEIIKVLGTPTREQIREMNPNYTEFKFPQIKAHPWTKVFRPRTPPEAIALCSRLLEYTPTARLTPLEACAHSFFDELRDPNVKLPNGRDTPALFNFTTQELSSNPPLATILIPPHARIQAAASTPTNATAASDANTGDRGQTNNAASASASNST
Chain of Beta-secretase 1 (P56817 whole entry): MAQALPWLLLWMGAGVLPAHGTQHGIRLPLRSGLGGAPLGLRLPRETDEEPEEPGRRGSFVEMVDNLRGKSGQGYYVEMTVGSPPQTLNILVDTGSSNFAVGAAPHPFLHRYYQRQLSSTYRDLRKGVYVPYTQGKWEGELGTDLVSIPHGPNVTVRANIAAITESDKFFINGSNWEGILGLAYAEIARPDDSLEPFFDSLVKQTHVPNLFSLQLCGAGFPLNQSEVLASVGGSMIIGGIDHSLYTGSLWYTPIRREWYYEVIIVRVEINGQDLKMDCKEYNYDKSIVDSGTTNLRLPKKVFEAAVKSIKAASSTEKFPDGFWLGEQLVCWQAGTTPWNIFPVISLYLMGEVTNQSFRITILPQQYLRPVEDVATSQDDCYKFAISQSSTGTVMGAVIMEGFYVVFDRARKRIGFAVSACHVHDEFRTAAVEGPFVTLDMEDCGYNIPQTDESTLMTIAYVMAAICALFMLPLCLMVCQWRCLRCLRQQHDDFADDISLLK

Compound `O=c1[nH]c(=O)c2cc[nH]c2[nH]1` [7-DEAZAXANTHINE] has an IC50 [1] of 0.7 µM and an IC50 [2] of 0.3 µM.

Work on `Cc1ccc2c(c1)c1c(n2CCc2ccc(C)nc2)CCN(C)C1` [LATREPIRDINE] yielded an IC50 [3] of 7900 µM, an IC50 [4] of 57 µM and an EC50 [5] of 42 mg/kg.

Compound `CCN1CCc2c(c3ccccc3n2CCC(=O)N2c3ccccc3Sc3ccccc32)C1` has an IC50 [6] of 0.52 µM.

Compound `C#CCN[C@@H]1CCc2ccc(OC(=O)N(C)CC)cc21` [LADOSTIGIL] has an IC50 [7] of 1050 µM.

In the case of `CC[C@@H](CN1CCCC1=O)C(=O)NCCCCCCCNc1c2c(nc3cc(Cl)ccc13)C[C@H]1C=C(C)C[C@@H]2C1`, the IC50 [8] is reported as 0.232 µM, the inhibition [9] is reported as 36% and the IC50 [10] is reported as 0.0042 µM. The inhibition [11] was 54%.

`Cc1ccc2[nH]c3c(c2c1)CN(CCCCCCN1CCc2[nH]c4ccc(C)cc4c2C1)CC3` showed an IC50 [12] of 11 µM and an IC50 [10] of 0.195 µM.

— ChEMBL document CHEMBL4385595, “Advancement of multi-target drug discoveries and promising applications in the field of Alzheimer's disease” (Eur J Med Chem, 2019)
